BindingDB's records for doi:10.1016/j.ejphar.2004.03.050 (Memorial Sloan-Kettering Cancer Center, 2004)
Where “and” joins values, the source holds several entries; their conditions need not be identical. Equal entries are not always repeated.

Experiments:
Mu-type opioid receptor = Mu-type opioid receptor (Bos taurus, UniProt P79350)
Opioid receptor delta 1 = Opioid receptor delta 1 (Bos taurus, UniProt F1N083)
Chain of Opioid receptor delta 1 (F1N083 whole entry): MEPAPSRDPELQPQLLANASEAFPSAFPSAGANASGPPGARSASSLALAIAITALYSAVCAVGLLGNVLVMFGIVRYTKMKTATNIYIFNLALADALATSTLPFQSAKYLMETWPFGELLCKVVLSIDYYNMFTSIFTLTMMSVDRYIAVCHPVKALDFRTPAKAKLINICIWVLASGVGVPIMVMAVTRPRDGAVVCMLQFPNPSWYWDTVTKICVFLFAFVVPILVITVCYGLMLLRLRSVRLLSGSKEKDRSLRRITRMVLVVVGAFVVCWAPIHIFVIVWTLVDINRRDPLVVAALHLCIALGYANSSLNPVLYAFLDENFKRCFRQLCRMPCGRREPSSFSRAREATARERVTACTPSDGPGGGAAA

Chain of Mu-type opioid receptor (P79350 whole entry): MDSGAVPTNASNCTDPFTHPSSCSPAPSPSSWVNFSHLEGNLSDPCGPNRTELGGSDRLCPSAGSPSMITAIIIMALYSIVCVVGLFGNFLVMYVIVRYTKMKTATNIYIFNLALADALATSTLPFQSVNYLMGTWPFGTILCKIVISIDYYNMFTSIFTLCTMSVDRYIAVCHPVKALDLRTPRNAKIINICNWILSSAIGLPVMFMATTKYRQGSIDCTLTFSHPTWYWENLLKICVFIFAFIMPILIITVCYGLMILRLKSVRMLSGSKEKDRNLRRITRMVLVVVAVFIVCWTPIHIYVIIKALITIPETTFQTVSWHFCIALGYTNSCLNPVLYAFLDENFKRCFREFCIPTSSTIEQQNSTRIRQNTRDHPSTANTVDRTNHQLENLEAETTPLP

Row | SMILES | Ki (Mu-type opioid receptor) | Ki (Opioid receptor delta 1) [nM]
1 | CC(=O)OC1CCC2C3Cc4ccc(O)c5c4C2(CCN3C)C1O5 (configuration not stated) [6-AcDHM] | 1.83 nM and 12.3 nM | 
2 | CN1CCC23c4c5ccc(O)c4OC2C(O)CCC3C1C5 (configuration not stated) [CAS_509-60-4] |  | 1000
